{"source": "patent US20240148679A1", "about": "“METHODS AND COMPOSITIONS RELATED TO TREATMENT AND PREVENTION OF CANCER BY INHIBITION OF DGAT1 AND DGAT2” (Ohio State Innovation Foundation, priority 2019, published 2024)", "key": {"U251 cells": {"test_system": "U251 cells", "assay": "Mitochondrial membrane potential (Rhodamine 123)", "format": "cell-based, human", "conditions": "20 μg/ml, 24 hr", "method": "(A, B) Transmission electron microscopy analysis of the mitochondrial structure in U251cells treated with the DGAT1 inhibitor A-922500 (20 μg/ml) or DGAT2 inhibitor PF-06424439 (20 μg/ml) for 24 hr (A) or infected with shRNA-expressing lentivirus against DGAT1 for 48 hr (B). Scale bar, 500 nm. Mitochondria are indicated by arrows. (C) Representative fluorescence images of mitochondria in U251 cells treated with the DGAT1 inhibitor or DGAT2 inhibitor. Mitochondria were stained with MitoTracker Red. LDs were stained with BODIPY 493/503. Nuclei were stained with Hoechst 33342. Scale bar, 10 μm. (D) Representative fluorescence images of mitochondria in GBM cells infected with shRNA-expressing lentivirus against DGAT1 or DGAT2 for 48 hr. Mitochondria were stained with MitoTracker Red. LDs were stained with BODIPY 493/503. Nuclei were stained with Hoechst 33342. Scale bar, 10 μm. (E, F) Representative fluorescence image analysis of mitochondrial membrane potential stained with Rhodamine123 in U251 cells treated with the DGAT1 inhibitor A-922500 (20 μg/ml) for 24 hr or infected with shRNA-expressing lentivirus against DGAT1 for 48 hr. Nuclei were stained with Hoechst 33342. Scale bar, 10 μm. Rhodamine123 staining was quantified by ImageJ software in more than 100 cells. Statistical significance was determined by s t-test for inhibitor treatment or one-way ANOVA for shRNA knockdown. *P<0.0001. […]"}, "[1]": {"assay": "Toxicity in treated mice (H&E of organs, body weight)", "format": "in vivo", "conditions": "120 mg/kg/day; for toxic effects in mouse liver, kidney and spleen (H&E staining): 13 days", "method": "(A) The H&E staining of the liver, kidney and spleen of mice treated with the DGAT1 inhibitor A922500 (120 mg/kg/day, oral gavage) for 13 days. Scale bar, 50 μm. (B) The body weight of mice treated with vehicle or DGAT1 inhibitor A-922500 (120 mg/kg/day, oral gavage) for 13 days. The mice with DGAT1i treatment lost 8% weight at day 13 treatment compared with the mice weight at day 1.\nParaffin tissue sections were deparaffinized in xylene and rehydrated in degraded ethanol (100%, 95% and 70% ethanol), respectively. After washing with dH2O, slides were stained with hematoxylin and eosin solution in sequence followed by washing with dH2O. Then slides were dehydrated in degraded ethanol and immersed in xylene followed by mounting in Permount.\nIntracranial xenograft models were generated using female athymic nude (NCr-nu/nu) mice (6-8 weeks of age obtained from OSU Target Validation Shared Resource). U87EGFRvIII (1×10^6) cells infected with shDGAT1-, shDGAT2- or scramble shRNA-expressing lentivirus for 48 hr (suspended in 100 μl PBS) were implanted into mice flank to generate subcutaneous model. For intracranial xenograft model, U87EGFRvIII-luc (1×10^5) or GBM30-luc (1×10^5) cells infected with shDGAT1-, shDGAT2- or scramble shRNA-expressing lentivirus for 48 hours (suspended in 5 μl PBS) were implanted into mouse brains. Mice were observed until they became moribund, at which point they were sacrificed. For drug treatment, U87EGFRvIII (1×10^6 cells suspended in 100 μl PBS) or GBM30 cells (4×10^6 suspended in 100 μl PBS and then mixed with 100 μl matrigel) were implanted in mouse flanks. DGAT1 inhibitor A-922500 (120 mg/kg/day, oral gavage) was formulated by 1% Tween 80 in PBS and administrated to mice when tumor size reached approximately 80 mm^3."}}, "note": "“Also recorded” adds a separate entry of the source.", "data": [{"smiles": "O=C(Nc1ccccc1)Nc1ccc(-c2ccc(C(=O)[C@@H]3CCC[C@H]3C(=O)O)cc2)cc1", "note": "[A-922500]", "values": [{"measurement": "mitochondria membrane potential", "setting": "U251 cells", "value": "significantly reduced"}, {"measurement": "mice weight decrease", "setting": "[1]; after 13 days, in comparison with vehicle control group", "value": "about 8%"}, {"measurement": "toxicity in treated mice (overall)", "setting": "[1]; oral gavage", "value": "does not induce noticeable toxic effects; also recorded: no obvious toxicity was observed"}, {"measurement": "toxic effects in mouse liver, kidney and spleen (H&E staining)", "setting": "[1]; oral gavage", "value": "did not observe any toxic effects"}, {"measurement": "toxic effects in mouse liver, kidney and spleen (H&E staining)", "setting": "[1]; oral gavage, listed as A922500", "value": "no obvious toxic effects"}, {"measurement": "body weight loss", "setting": "[1]; oral gavage, day 13 compared with day 1", "value": 8, "unit": "%"}]}]}
